Measurements: US20090270407A1, “FUNGICIDAL ISOXAZOLIDINES” (E. I. DU PONT DE NEMOURS AND COMPANY, priority 2008, published 2009)
Marks after values point to notes of the source that are not given here.

Experiments:
Phytophthora infestans = format: in vivo; details: 200 ppm; 100 = 100 % disease control, 0 = no disease control relative to controls
[1] = tested on: Puccinia recondita f. sp. tritici; assay: Test B: wheat leaf rust, preventive spray on wheat seedlings, visual disease rating; details: 100 = 100 % disease control, 0 = no disease control relative to controls
Text: (§1) General protocol for preparing test suspensions for Tests A-I: The test compounds were first dissolved in acetone in an amount equal to 3% of the final volume and then suspended at the desired concentration (in ppm) in acetone and purified water (50/50 mix) containing 250 ppm of the surfactant Trem® 014 (polyhydric alcohol esters). The resulting test suspensions were then used in Tests A-I. Spraying a 200 ppm test suspension to the point of run-off on the test plants was the equivalent of a rate of 500 g/ha.
The test suspension was sprayed to the point of run-off on wheat seedlings. The following day the seedlings were inoculated with a spore suspension of Puccinia recondita f. sp. tritici (the causal agent of wheat leaf rust) and incubated in a saturated atmosphere at 20° C. for 24 h, and then moved to a growth chamber at 20° C. for 7 days, after which time visual disease ratings were made.
(§2) All results are for 200 ppm except where followed by “*” which indicates 40 ppm.

Botrytis cinerea = assay: Test E: tomato Botrytis, preventive spray on tomato seedlings, visual disease rating; details: 100 = 100 % disease control, 0 = no disease control relative to controls
Text: as §1
The test suspension was sprayed to the point of run-off on tomato seedlings. The following day the seedlings were inoculated with a spore suspension of Botrytis cinerea (the causal agent of tomato Botrytis) and incubated in saturated atmosphere at 20° C. for 48 h, and then moved to a growth chamber at 24° C. for 3 additional days, after which time visual disease ratings were made.
as §2

[2] = tested on: Erysiphe graminis f. sp. tritici; assay: Test A: wheat powdery mildew, preventive spray on wheat seedlings, visual disease rating; details: 100 = 100 % disease control, 0 = no disease control relative to controls
Text: (§3) General protocol for preparing test suspensions for Tests A-I: The test compounds were first dissolved in acetone in an amount equal to 3% of the final volume and then suspended at the desired concentration (in ppm) in acetone and purified water (50/50 mix) containing 250 ppm of the surfactant Trem® 014 (polyhydric alcohol esters). The resulting test suspensions were then used in Tests A-I. Spraying a 200 ppm test suspension to the point of run-off on the test plants was the equivalent of a rate of 500 g/ha. (An asterisk “*” next to the rating value indicates a 40 ppm test suspension.)
The test suspension was sprayed to the point of run-off on wheat seedlings. The following day the seedlings were inoculated with a spore dust of Erysiphe graminis f. sp. tritici (the causal agent of wheat powdery mildew) and incubated in a growth chamber at 20° C. for 8 days, after which time visual disease ratings were made.

Septoria tritici = assay: Test D: wheat leaf blotch, preventive spray on wheat seedlings, visual disease rating; format: in vivo; details: 100 = 100 % disease control, 0 = no disease control relative to controls
Text: A dash (−) indicates no test results.

Septoria nodorum = assay: Test C: wheat glume blotch, preventive spray on wheat seedlings, visual disease rating; details: 100 = 100 % disease control, 0 = no disease control relative to controls
Alternaria solani = assay: Test F: tomato early blight, preventive spray on tomato seedlings, visual disease rating; details: 100 = 100 % disease control, 0 = no disease control relative to controls
Text: as §3
The test suspension was sprayed to the point of run-off on tomato seedlings. The following day the seedlings were inoculated with a spore suspension of Alternaria solani (the causal agent of tomato early blight) and incubated in a saturated atmosphere at 27° C. for 48 h, and then moved to a growth chamber at 20° C. for 5 days, after which time visual disease ratings were made.
A dash (−) indicates no test results. All results are for 200 ppm except where followed by “*” which indicates 40 ppm.

Row | Structure (SMILES) | Test H disease control rating (Phytophthora infestans) [%] | Test B disease control rating ([1]; 200 ppm) [%] | Test E disease control rating (Botrytis cinerea; 200 ppm) [%] | Test A disease control rating ([2]; 200 ppm) [%] | Test D disease control rating (Septoria tritici; 200 ppm) [%] | Test C disease control rating (Septoria nodorum; 200 ppm) [%] | Test F disease control rating (Alternaria solani; 200 ppm) [%] | Test D disease control rating (Septoria tritici; 40 ppm (marked *)) | Test B disease control rating ([1]; 40 ppm (marked *)) | Test E disease control rating (Botrytis cinerea; 40 ppm (marked *)) | Test C disease control rating (Septoria nodorum; 40 ppm (marked *)) | Test A disease control rating ([2]; 40 ppm (marked *)) | Test F disease control rating (Alternaria solani; 40 ppm (marked *))
1 | CN1OC(C)(c2cccnc2)CC1c1ccc(Br)cc1 (racemic) [Compound 3] | 0 | 0 | 79 | 93 |  |  |  |  |  |  |  |  | 
2 | COc1cc(Br)ccc1C1CC(C)(c2cccnc2)ON1C (stereo not shown) [Compound 85] |  | 0 | 0 | 90 | 89 | 64 | 92 |  |  |  |  |  | 
3 | COc1ccccc1C1CC(C)(c2cccnc2)ON1C (mixture of isomers) [Compound 100] |  | 0 | 26 | 21 | 13 | 0 | 8 |  |  |  |  |  | 
4 | Cc1ccn(-c2ccc(C3CC(C)(c4cccnc4)ON3C)cc2)n1 (stereo not shown) [Compound 43] |  |  |  |  |  |  |  | 79* % | 0* % | 88* % | 90* % | 0* % | 52* %
5 | CN1OC(C)(c2cccnc2)CC1c1ccccc1Br (stereo not shown) [Compound 65] |  | 0 | 0 | 0 | 5 | 0 | 0 |  |  |  |  |  | 
6 | CN1OC(C)(c2cccnc2)CC1c1ccc(-n2ccc(-c3cccs3)n2)cc1 (stereo not shown) [Compound 46] |  |  |  |  |  |  |  | 62* % | 0* % | 78* % | 0* % | 0* % | 0* %
7 | CN1OC(C)(c2cccnc2)CC1c1ccc(-n2ccc(-c3ccccc3)n2)cc1 (stereo not shown) [Compound 41] |  |  |  |  |  |  |  | 65* % | 0* % | 0* % | 0* % | 78* % | 0* %
8 | CN1OC(C)(c2cccnc2)CC1c1ccc(-n2cc(I)cn2)cc1 (stereo not shown) [Compound 56] |  |  |  |  |  |  |  | 74* % | 0* % | 94* % | 99* % | 52* % | 91* %
9 | Cc1ccccc1C1CC(C)(c2cccnc2)ON1C (mixture of isomers) [Compound 99] |  | 17 | 0 | 0 | 18 | 0 | 0 |  |  |  |  |  | 
10 | CN(C)c1ccc(C2CC(C)(c3cccnc3)ON2C)c2ccccc12 (mixture of isomers) [Compound 90] |  | 0 | 0 | 0 | 35 | 0 | 0 |  |  |  |  |  | 
11 | CN1OC(C)(c2cccnc2)CC1c1ccc(Br)cc1Br (stereo not shown) [Compound 83] |  | 0 | 82 | 98 | 91 | 81 | 56 |  |  |  |  |  | 
12 | CN1OC(C)(c2cccnc2)CC1c1ccc(-c2cccs2)cc1 (stereo not shown) [Compound 55] |  |  |  |  |  |  |  | 93* % | 0* % | 97* % | 84* % | 61* % | 85* %
13 | CN1OC(C)(c2cccnc2)CC1c1ccc(-n2nc(C(F)(F)F)cc2-c2ccccn2)cc1 (stereo not shown) [Compound 70] |  |  |  |  |  |  |  | 54* % | 26* % | 0* % | 0* % | 0* % | 72* %
14 | CN1OC(C)(c2cccnc2)CC1c1ccccc1Cl (stereo not shown) [Compound 93] |  | 0 | 0 | 0 | 3 | 0 | 0 |  |  |  |  |  | 
15 | COc1cc(Br)ccc1C1CC(C)(c2cccnc2)ON1C (stereo not shown) [Compound 86] |  | 9 | 0 | 91 | 76 | 0 | 0 |  |  |  |  |  | 
16 | CN1OC(C)(c2cccnc2)CC1c1ccc(-n2ccc(-c3ccc(Br)cc3)n2)cc1 (stereo not shown) [Compound 49] |  |  |  |  |  |  |  | 27* % | 0* % | 0* % | 0* % | 61* % | 0* %

Row | Structure (SMILES) | Test H disease control rating (Phytophthora infestans) [%] | Test B disease control rating ([1]; 200 ppm) [%] | Test E disease control rating (Botrytis cinerea; 200 ppm) [%] | Test A disease control rating ([2]; 200 ppm) [%] | Test D disease control rating (Septoria tritici; 200 ppm) [%] | Test C disease control rating (Septoria nodorum; 200 ppm) [%] | Test F disease control rating (Alternaria solani; 200 ppm) [%] | Test D disease control rating (Septoria tritici; 40 ppm (marked *)) | Test B disease control rating ([1]; 40 ppm (marked *)) | Test E disease control rating (Botrytis cinerea; 40 ppm (marked *)) | Test C disease control rating (Septoria nodorum; 40 ppm (marked *)) | Test A disease control rating ([2]; 40 ppm (marked *)) | Test F disease control rating (Alternaria solani; 40 ppm (marked *))
17 | CN1OC(C)(c2cccnc2)CC1c1ccccc1F (stereo not shown) [Compound 78] |  | 0 | 0 | 0 | 16 | 0 | 0 |  |  |  |  |  | 
18 | COC(=O)c1ccc(C2CC(C)(c3cccnc3)ON2C)cc1 (stereo not shown) [Compound 39] |  | 0 | 90 | 88 | 32 | 51 | 0 |  |  |  |  |  | 
19 | CN1OC(C)(c2cccnc2)CC1c1ccccc1Cl (stereo not shown) [Compound 92] |  | 0 | 0 | 0 | 22 | 0 | 0 |  |  |  |  |  | 
20 | CN1OC(C)(c2cccnc2)CC1c1cccc(Br)c1 (stereo not shown) [Compound 64] |  | 0 | 0 | 64 | 45 | 0 | 0 |  |  |  |  |  | 
21 | CN1OC(C)(c2cccnc2)CC1c1ccc(-c2ccncc2)cc1 (stereo not shown) [Compound 60] |  |  |  |  |  |  |  | 3* % | 0* % | 29* % | 0* % | 0* % | 0* %
22 | CN1OC(C)(c2cccnc2)CC1c1ccc(-n2ccc(-c3ccc(Br)cc3)n2)cc1 (stereo not shown) [Compound 48] |  |  |  |  |  |  |  | 43* % | 0* % | 20* % | 0* % | 61* % | 0* %
23 | CN1OC(C)(c2cccnc2)CC1c1cccc(Br)c1 (stereo not shown) [Compound 67] |  | 0 | 34 | 47 | 8 | 0 | 0 |  |  |  |  |  | 
24 | CN1OC(C)(c2cccnc2)CC1c1ccc(-c2cccs2)cc1 (stereo not shown) [Compound 54] |  |  |  |  |  |  |  | 79* % | 9* % | 99* % | 98* % | 71* % | 99* %
25 | CN1OC(C)(c2cccnc2)CC1c1ccccc1I (mixture of isomers) [Compound 88] |  | 27 | 0 | 81 | 70 | 0 | 0 |  |  |  |  |  | 
26 | Cc1cc(C)n(-c2ccc(C3CC(C)(c4cccnc4)ON3C)cc2)n1 (stereo not shown) [Compound 51] |  |  |  |  |  |  |  | 32* % | 0* % | 0* % | 0* % | 0* % | 0* %
27 | CN1OC(c2cccnc2)(C(F)(F)F)CC1c1ccc(-n2ccc(C(F)(F)F)n2)cc1 (stereo not shown) [Compound 44] |  |  |  |  |  |  |  | 89* % | 19* % | 0* % | 69* % | 100* % | 0* %
28 | CN1OC(C)(c2cccnc2)CC1c1ccc(-c2cncnc2)cc1 (stereo not shown) [Compound 52] |  |  |  |  |  |  |  | 76* % | 0* % | 92* % | 99* % | 0* % | 59* %
29 | CN1OC(C)(c2cccnc2)CC1c1ccc(Br)cc1F (stereo not shown) [Compound 96] |  | 0 | 0 | 48 | 77 | 78 | 0 |  |  |  |  |  | 
30 | CN1OC(C)(c2cccnc2)CC1c1cccc(Cl)c1 (stereo not shown) [Compound 76] |  | 0 | 85 | 84 | 34 | 0 | 9 |  |  |  |  |  | 
31 | CN1OC(C)(c2cccnc2)CC1c1ccccc1F (stereo not shown) [Compound 79] |  | 27 | 0 | 0 | 7 | 22 | 0 |  |  |  |  |  | 
